This passage reports IC50 results from ChEMBL document CHEMBL1140819, “Protected aminooxyprolines for expedited library synthesis: application to Tsg101-directed proline-oxime containing peptides” (Bioorg Med Chem Lett, 2008).

The IC50 is the concentration at which inhibition is half-maximal. A lower IC50 goes with higher potency.

SMILES strings stand for the structures. *1 amine or outer side, *2 acyl side, *3 side chain or, on linkers, in order; H or OH if unused. Where a SMILES comes first, the peptide text is derived from it. [ ]: non-standard residue; d: D form. The star is where a group is joined. ξ: configuration not given here. Fluorescein(5-NHCS) = O=C1OC2(c3ccc(O)cc3Oc3cc(O)ccc32)c2cc(NC(=S)*)ccc21; X18 = O=C([C@@H]1C[C@@H](O/N=C\c2ccc3c(c2)Cc2ccccc2-3)CN1[*:1])[*:2]; X23 = O=C([C@@H]1[C@@H](O/N=C\c2ccc(OCc3ccccc3)cc2)CCN1[*:1])[*:2]; X7 = O=C([C@@H]1[C@@H](O/N=C\c2c(F)c(F)c(F)c(F)c2F)CCN1[*:1])[*:2]; X9 = O=C([C@@H]1C[C@H](O/N=C\c2ccc([N+](=O)[O-])cc2)CN1[*:1])[*:2]; X21 = O=C([C@@H]1[C@@H](O/N=C\c2cnc3ccccc3c2)CCN1[*:1])[*:2]; X26 = O=C([C@@H]1C[C@@H](O/N=C\CCc2ccccc2)CN1[*:1])[*:2]; X20 = O=C(O)CC/C=N\O[C@H]1CCN([*:1])[C@@H]1C(=O)[*:2]; X41 = CCCCC/C=N\O[C@@H]1C[C@@H](C(=O)[*:2])N([*:1])C1; X6 = O=C([C@@H]1C[C@@H](O/N=C\c2ccoc2)CN1[*:1])[*:2]; X2 = CCCCC/C=N\O[C@H]1C[C@@H](C(=O)[*:2])N([*:1])C1; ξPip = O=C(O)C1CCCCN1; Ava = NCCCCC(=O)O

The target of the experiment is T1, Tumor susceptibility gene 101 protein (Homo sapiens, UniProt Q99816).
T1 sequence (Q99816 whole entry): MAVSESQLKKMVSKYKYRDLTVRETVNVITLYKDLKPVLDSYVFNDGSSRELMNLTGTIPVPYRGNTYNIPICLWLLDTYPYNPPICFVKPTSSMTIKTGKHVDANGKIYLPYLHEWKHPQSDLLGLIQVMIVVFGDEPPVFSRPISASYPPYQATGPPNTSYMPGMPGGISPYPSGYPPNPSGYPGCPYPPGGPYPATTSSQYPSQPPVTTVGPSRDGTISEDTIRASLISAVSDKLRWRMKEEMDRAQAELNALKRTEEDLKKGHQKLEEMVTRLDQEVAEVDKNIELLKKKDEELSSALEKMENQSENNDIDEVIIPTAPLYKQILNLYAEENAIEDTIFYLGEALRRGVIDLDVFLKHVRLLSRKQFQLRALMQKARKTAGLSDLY
Briefly: Binding affinity to Tsg101.
Consider `C[C@H](NC(=O)[C@@H](NC(=O)[C@@H]1CCCN1C(=O)[C@H](CCC(=O)O)NC(=O)[C@@H]1CCCN1C(=O)CCCCNC(=S)Nc1ccc2c(c1)C1(OC2=O)c2ccc(O)cc2Oc2cc(O)ccc21)[C@@H](C)O)C(=O)N1CCCCC1C(=O)N1C[C@@H](O/N=C\c2ccc([N+](=O)[O-])cc2)C[C@H]1C(=O)N[C@@H](CCC(=O)O)C(=O)N[C@@H](CCC(=O)O)C(N)=O` (stereo not given in full) ({Fluorescein(5-NHCS)-Ava}-PEPTA[ξPip][X9]EE-NH2), for which the IC50 amounted to 91 µM. In turn, `C[C@H](NC(=O)[C@@H](NC(=O)[C@@H]1CCCN1C(=O)[C@H](CCC(=O)O)NC(=O)[C@@H]1CCCN1C(=O)CCCCNC(=S)Nc1ccc2c(c1)C1(OC2=O)c2ccc(O)cc2Oc2cc(O)ccc21)[C@@H](C)O)C(=O)N1CCCCC1C(=O)N1C[C@H](O/N=C\c2ccoc2)C[C@H]1C(=O)N[C@@H](CCC(=O)O)C(=O)N[C@@H](CCC(=O)O)C(N)=O` (stereo not given in full) ({Fluorescein(5-NHCS)-Ava}-PEPTA[ξPip][X6]EE-NH2) showed a half-inhibitory concentration (IC50) of 30 µM. The result for `C[C@H](NC(=O)[C@@H](NC(=O)[C@@H]1CCCN1C(=O)[C@H](CCC(=O)O)NC(=O)[C@@H]1CCCN1C(=O)CCCCNC(=S)Nc1ccc2c(c1)C1(OC2=O)c2ccc(O)cc2Oc2cc(O)ccc21)[C@@H](C)O)C(=O)N1CCCCC1C(=O)N1CC[C@H](O/N=C\c2ccc(OCc3ccccc3)cc2)[C@H]1C(=O)N[C@@H](CCC(=O)O)C(=O)N[C@@H](CCC(=O)O)C(N)=O` (stereo not given in full) ({Fluorescein(5-NHCS)-Ava}-PEPTA[ξPip][X23]EE-NH2) reads 18 µM; that for `C[C@H](NC(=O)[C@@H](NC(=O)[C@@H]1CCCN1C(=O)[C@H](CCC(=O)O)NC(=O)[C@@H]1CCCN1C(=O)CCCCNC(=S)Nc1ccc2c(c1)C1(OC2=O)c2ccc(O)cc2Oc2cc(O)ccc21)[C@@H](C)O)C(=O)N1CCCCC1C(=O)N1C[C@H](O/N=C\c2ccc3c(c2)Cc2ccccc2-3)C[C@H]1C(=O)N[C@@H](CCC(=O)O)C(=O)N[C@@H](CCC(=O)O)C(N)=O` (stereo not given in full) ({Fluorescein(5-NHCS)-Ava}-PEPTA[ξPip][X18]EE-NH2), 27 µM. The result for `CCCCC/C=N\O[C@H]1C[C@@H](C(=O)N[C@@H](CCC(=O)O)C(=O)N[C@@H](CCC(=O)O)C(N)=O)N(C(=O)C2CCCCN2C(=O)[C@H](C)NC(=O)[C@@H](NC(=O)[C@@H]2CCCN2C(=O)[C@H](CCC(=O)O)NC(=O)[C@@H]2CCCN2C(=O)CCCCNC(=S)Nc2ccc3c(c2)C2(OC3=O)c3ccc(O)cc3Oc3cc(O)ccc32)[C@@H](C)O)C1` (stereo not given in full) ({Fluorescein(5-NHCS)-Ava}-PEPTA[ξPip][X2]EE-NH2) reads 42 µM; that for `C[C@H](NC(=O)[C@@H](NC(=O)[C@@H]1CCCN1C(=O)[C@H](CCC(=O)O)NC(=O)[C@@H]1CCCN1C(=O)CCCCNC(=S)Nc1ccc2c(c1)C1(OC2=O)c2ccc(O)cc2Oc2cc(O)ccc21)[C@@H](C)O)C(=O)N1CCCCC1C(=O)N1C[C@H](O/N=C\CCc2ccccc2)C[C@H]1C(=O)N[C@@H](CCC(=O)O)C(=O)N[C@@H](CCC(=O)O)C(N)=O` (stereo not given in full) ({Fluorescein(5-NHCS)-Ava}-PEPTA[ξPip][X26]EE-NH2), 26 µM; that for `CCCCC/C=N\O[C@@H]1C[C@@H](C(=O)N[C@@H](CCC(=O)O)C(=O)N[C@@H](CCC(=O)O)C(N)=O)N(C(=O)C2CCCCN2C(=O)[C@H](C)NC(=O)[C@@H](NC(=O)[C@@H]2CCCN2C(=O)[C@H](CCC(=O)O)NC(=O)[C@@H]2CCCN2C(=O)CCCCNC(=S)Nc2ccc3c(c2)C2(OC3=O)c3ccc(O)cc3Oc3cc(O)ccc32)[C@@H](C)O)C1` (stereo not given in full) ({Fluorescein(5-NHCS)-Ava}-PEPTA[ξPip][X41]EE-NH2), 41 µM. The compound `C[C@H](NC(=O)[C@@H](NC(=O)[C@@H]1CCCN1C(=O)[C@H](CCC(=O)O)NC(=O)[C@@H]1CCCN1C(=O)CCCCNC(=S)Nc1ccc2c(c1)C1(OC2=O)c2ccc(O)cc2Oc2cc(O)ccc21)[C@@H](C)O)C(=O)N1CCCCC1C(=O)N1CC[C@H](O/N=C\CCC(=O)O)[C@H]1C(=O)N[C@@H](CCC(=O)O)C(=O)N[C@@H](CCC(=O)O)C(N)=O` (stereo not given in full) ({Fluorescein(5-NHCS)-Ava}-PEPTA[ξPip][X20]EE-NH2) registered an IC50 of 16 µM. `C[C@H](NC(=O)[C@@H](NC(=O)[C@@H]1CCCN1C(=O)[C@H](CCC(=O)O)NC(=O)[C@@H]1CCCN1C(=O)CCCCNC(=S)Nc1ccc2c(c1)C1(OC2=O)c2ccc(O)cc2Oc2cc(O)ccc21)[C@@H](C)O)C(=O)N1CCCCC1C(=O)N1CC[C@H](O/N=C\c2cnc3ccccc3c2)[C@H]1C(=O)N[C@@H](CCC(=O)O)C(=O)N[C@@H](CCC(=O)O)C(N)=O` (stereo not given in full) ({Fluorescein(5-NHCS)-Ava}-PEPTA[ξPip][X21]EE-NH2) had an IC50 of 19 µM. This IC50 and that of the compound before are within 1.5-fold of each other. `C[C@H](NC(=O)[C@@H](NC(=O)[C@@H]1CCCN1C(=O)[C@H](CCC(=O)O)NC(=O)[C@@H]1CCCN1C(=O)CCCCNC(=S)Nc1ccc2c(c1)C1(OC2=O)c2ccc(O)cc2Oc2cc(O)ccc21)[C@@H](C)O)C(=O)N1CCCCC1C(=O)N1CC[C@H](O/N=C\c2c(F)c(F)c(F)c(F)c2F)[C@H]1C(=O)N[C@@H](CCC(=O)O)C(=O)N[C@@H](CCC(=O)O)C(N)=O` (stereo not given in full) ({Fluorescein(5-NHCS)-Ava}-PEPTA[ξPip][X7]EE-NH2) returned an IC50 of 19 µM. In other words, the double-digit micromolar range.
